Activity calls are given as the source filed them.
Legend:
[1] = test system: HEK293; experiment: viability loss in HEK293T cells – cell-based, ATP luminescence, cherry-pick samples, cytotoxicity control, dose response (AID 687005); type: functional; settings: Homo sapiens;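 note: cells exposed to compound for 48 hours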
[2] = HEK293 Cytotoxicity Assay Measured in Cell-Based System Using Plate Reader - 7071-01_Inhibitor_Dose_CherryPick_Activity_Set2.; type: functional
[3] = cytotoxicity in MITF-independent A375 cells – cell-based, CellTiter-Glo luminescence, dry powder, set 4, counter-screen for MITF inhibitor project, dose response (AID 624364); type: functional; settings: A-375;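 note: A375 melanoma cells are MITF independent so this is a counter screen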
[4] = viability loss in MITF-independent A375 cells – cell-based, CellTiter-Glo luminescence, dry powder, set 2, counter-screen for MITF inhibitor project, dose response (AID 624489); type: functional; settings: A-375;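 note: actives are compounds lowering A375 viability meaning general cytotoxicity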
[5] = potency of ADAM10 substrate cleavage blockers – biochemical, QFRET, dose response (AID 743254);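 note: ADAM10 enzyme with the DM2 quenched FRET peptide as substrate; EDANS fluorescence gain as the protease cuts the substrate; inhibitor potency against ADAM10 proteolytic activity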
[6] = molecular target: T1, Disintegrin and metalloproteinase domain-containing protein 17 (Homo sapiens, UniProt P78536); experiment: inhibition of ADAM17 substrate cleavage – biochemical, quenched FRET substrate, counter-screen for ADAM10 exosite inhibitor project, dose response (AID 743253)
T1 sequence (P78536 whole entry, the tested form may be a part): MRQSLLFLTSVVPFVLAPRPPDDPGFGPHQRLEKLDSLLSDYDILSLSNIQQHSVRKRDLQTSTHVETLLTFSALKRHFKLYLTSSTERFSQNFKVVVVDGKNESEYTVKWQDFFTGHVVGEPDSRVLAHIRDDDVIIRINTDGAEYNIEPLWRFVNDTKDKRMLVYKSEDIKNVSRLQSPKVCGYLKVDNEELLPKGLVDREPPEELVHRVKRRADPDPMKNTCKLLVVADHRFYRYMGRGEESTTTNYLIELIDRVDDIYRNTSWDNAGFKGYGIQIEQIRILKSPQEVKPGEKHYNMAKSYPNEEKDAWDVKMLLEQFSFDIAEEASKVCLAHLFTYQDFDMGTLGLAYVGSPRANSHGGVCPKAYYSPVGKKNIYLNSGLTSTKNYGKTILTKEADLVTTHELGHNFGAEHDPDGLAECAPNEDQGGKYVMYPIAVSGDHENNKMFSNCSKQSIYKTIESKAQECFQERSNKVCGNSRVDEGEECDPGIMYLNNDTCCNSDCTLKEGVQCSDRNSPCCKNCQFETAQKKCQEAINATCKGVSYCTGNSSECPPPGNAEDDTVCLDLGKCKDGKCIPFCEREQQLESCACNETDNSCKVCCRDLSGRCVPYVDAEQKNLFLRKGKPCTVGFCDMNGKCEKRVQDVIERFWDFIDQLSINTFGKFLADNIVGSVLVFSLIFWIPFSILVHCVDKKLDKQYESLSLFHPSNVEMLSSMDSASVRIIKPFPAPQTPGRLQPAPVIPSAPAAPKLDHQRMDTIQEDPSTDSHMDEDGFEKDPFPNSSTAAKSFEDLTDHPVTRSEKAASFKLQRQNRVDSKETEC

[7] = molecular target: Caspase-7 (Homo sapiens, UniProt P55210); experiment: caspase-7 enzyme inhibition, selectivity check – biochemical, DEVD-R110 fluorescence, cherry-pick, selectivity assay for caspase-6 inhibitor project, dose response (AID 743295); type: functional
Caspase-7, sequence (P55210 24-198 limits assumed): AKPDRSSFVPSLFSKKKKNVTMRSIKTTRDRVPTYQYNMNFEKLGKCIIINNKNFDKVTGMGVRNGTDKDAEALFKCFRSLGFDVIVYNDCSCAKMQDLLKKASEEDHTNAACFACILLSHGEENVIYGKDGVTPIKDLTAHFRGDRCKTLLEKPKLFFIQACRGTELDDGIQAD
Caspase-7, sequence (P55210 207-303 limits assumed): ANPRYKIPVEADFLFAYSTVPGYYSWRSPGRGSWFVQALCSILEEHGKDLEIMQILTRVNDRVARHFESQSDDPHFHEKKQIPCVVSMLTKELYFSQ

[8] = molecular target: T2, Caspase-6 (Homo sapiens, UniProt P55212); experiment: inhibition of CASP6 peptide cleavage – biochemical, VEID-R110 fluorescence, cherry-pick, dose response (AID 720632)
T2 sequence (P55212 whole entry): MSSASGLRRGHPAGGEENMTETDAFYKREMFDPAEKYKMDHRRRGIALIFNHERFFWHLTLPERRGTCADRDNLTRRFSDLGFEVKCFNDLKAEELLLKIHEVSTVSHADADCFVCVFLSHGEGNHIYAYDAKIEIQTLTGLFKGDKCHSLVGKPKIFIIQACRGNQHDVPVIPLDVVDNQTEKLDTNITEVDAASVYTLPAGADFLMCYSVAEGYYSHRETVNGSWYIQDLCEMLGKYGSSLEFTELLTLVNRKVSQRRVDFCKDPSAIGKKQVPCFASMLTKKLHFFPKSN

[9] = alpha-synuclein stem-loop luciferase translation blockers – H4 neuroglioma cells, luminescence, confirmation (AID 1988); type: functional, cell-based
[10] = Luminescence Cell-Based Dose Response HTS to Identify Inhibitors of 5'UTR Stem-Loop Driven Prion Protein mRNA Translation in H4 Neuroglioblastoma Cells. [Related pubchem assays: 1827 (Project Summary), 1813 (Primary HTS)]; type: functional
[11] = cells; type: functional, cell-based
[12] = molecular target: T3, Nuclear receptor subfamily 0 group B member 1 (Homo sapiens, UniProt P51843); type: functional, cell-based;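 note: HEK293T cells transfected with SF-1 and DAX-1 plus StAR promoter luciferase reporter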
T3 sequence (P51843 whole entry): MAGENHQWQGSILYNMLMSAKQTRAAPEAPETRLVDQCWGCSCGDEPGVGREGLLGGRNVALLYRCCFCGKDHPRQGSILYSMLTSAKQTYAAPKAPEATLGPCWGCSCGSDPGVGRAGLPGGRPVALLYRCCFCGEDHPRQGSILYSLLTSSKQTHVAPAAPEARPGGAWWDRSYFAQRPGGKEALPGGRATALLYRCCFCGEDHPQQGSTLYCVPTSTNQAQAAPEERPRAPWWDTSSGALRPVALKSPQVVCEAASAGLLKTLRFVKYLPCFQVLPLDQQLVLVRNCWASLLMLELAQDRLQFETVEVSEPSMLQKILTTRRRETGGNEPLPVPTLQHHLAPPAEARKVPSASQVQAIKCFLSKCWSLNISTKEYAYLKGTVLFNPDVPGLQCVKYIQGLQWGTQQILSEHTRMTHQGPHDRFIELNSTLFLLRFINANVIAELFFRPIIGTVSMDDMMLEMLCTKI

[13] = Luminescence Cell-Based Dose Confirmation HTS to Identify Inhibitors of Platelet Dense Granule Release. [Related pubchem assays: 1663 (Primary HTS), 1678 (Summary of Project)]; type: functional
[14] = molecular target: T4, Protein skinhead-1 (Caenorhabditis elegans, UniProt P34707); type: functional
T4 sequence (P34707 whole entry): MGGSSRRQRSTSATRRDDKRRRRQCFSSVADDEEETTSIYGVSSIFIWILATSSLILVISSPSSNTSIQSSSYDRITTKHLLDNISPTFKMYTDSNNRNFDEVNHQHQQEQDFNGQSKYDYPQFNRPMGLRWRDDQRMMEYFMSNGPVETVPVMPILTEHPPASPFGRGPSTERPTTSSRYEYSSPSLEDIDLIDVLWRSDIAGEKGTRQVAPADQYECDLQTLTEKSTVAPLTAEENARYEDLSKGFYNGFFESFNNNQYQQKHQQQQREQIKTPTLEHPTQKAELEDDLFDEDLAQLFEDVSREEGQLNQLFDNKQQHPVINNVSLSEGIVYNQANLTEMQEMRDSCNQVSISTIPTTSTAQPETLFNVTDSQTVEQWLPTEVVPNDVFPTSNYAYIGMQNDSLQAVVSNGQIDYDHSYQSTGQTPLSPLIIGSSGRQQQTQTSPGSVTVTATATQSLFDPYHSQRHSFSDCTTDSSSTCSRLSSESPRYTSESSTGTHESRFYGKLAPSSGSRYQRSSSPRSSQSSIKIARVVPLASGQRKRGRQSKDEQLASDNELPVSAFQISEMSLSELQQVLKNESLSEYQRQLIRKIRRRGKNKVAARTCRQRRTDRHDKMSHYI

[15] = molecular target: Luciferin 4-monooxygenase (Photinus pyralis, UniProt P08659); experiment: inhibition of purified Photinus pyralis luciferase – biochemical, luminescence, dose response (AID 1891)
Luciferin 4-monooxygenase, sequence (P08659 whole entry): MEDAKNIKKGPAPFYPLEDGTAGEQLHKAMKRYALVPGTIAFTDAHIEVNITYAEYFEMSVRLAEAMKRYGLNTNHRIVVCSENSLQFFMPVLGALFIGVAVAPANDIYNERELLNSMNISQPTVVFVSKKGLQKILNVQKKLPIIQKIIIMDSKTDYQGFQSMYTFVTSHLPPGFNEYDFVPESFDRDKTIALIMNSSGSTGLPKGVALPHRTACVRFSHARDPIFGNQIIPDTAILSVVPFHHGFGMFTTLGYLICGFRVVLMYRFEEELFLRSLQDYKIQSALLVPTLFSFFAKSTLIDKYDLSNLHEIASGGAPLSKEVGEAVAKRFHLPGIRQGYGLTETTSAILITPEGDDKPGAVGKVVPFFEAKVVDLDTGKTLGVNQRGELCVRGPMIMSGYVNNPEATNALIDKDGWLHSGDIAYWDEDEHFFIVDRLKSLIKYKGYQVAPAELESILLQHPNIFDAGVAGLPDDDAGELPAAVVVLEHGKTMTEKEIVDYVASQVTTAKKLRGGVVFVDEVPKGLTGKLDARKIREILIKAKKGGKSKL

[16] = molecular target: Galanin receptor type 3 (Homo sapiens, UniProt O60755); experiment: Fluorescence-based cell-based primary high throughput dose response assay to identify antagonists of the Galanin Receptor 3 (GalR3).; type: functional
Galanin receptor type 3, sequence (O60755 whole entry): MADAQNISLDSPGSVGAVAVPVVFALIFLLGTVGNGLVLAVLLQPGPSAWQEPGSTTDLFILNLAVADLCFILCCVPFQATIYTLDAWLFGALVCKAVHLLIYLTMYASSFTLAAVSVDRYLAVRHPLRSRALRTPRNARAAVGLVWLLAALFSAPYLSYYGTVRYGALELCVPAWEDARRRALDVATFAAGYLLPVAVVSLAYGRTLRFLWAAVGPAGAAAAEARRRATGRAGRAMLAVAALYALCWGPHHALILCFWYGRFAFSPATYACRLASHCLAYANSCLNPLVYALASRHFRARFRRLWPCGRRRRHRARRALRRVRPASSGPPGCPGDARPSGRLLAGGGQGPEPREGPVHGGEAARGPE

[17] = cells; type: functional, cell-based; settings: HEK-CNG
[18] = test system: Vero; experiment: cells; type: functional, cell-based; settings: Chlorocebus sabaeus
[19] = test system: Vero; experiment: cells; type: functional; settings: Chlorocebus sabaeus
[20] = viability of uninfected HEp-2 cells – cell-based, HTS, cytotoxicity control for RSV inhibitor project, dose response (AID 2410); type: functional; settings: human respiratory syncytial virus
[21] = molecular target: T1, Disintegrin and metalloproteinase domain-containing protein 17; experiment: exosite inhibitors of ADAM17, dose response, biochemical (AID 743260)
[22] = luciferase reporter signal suppression in cells – H4 neuroglioma cells, luminescence, dose response (AID 1990); type: functional, cell-based
[23] = inhibition of ADAM10 peptide cleavage – biochemical, FRET peptide substrate, recombinant human ADAM10, selectivity assay for ADAM17 exosite inhibitor project, dose response (AID 743259);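 note: ADAM10 enzyme cleaving a FRET peptide substrate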
[24] = blockade of melanocortin 4 receptor signaling – cell-based, plate reader, cherry pick, counter-screen for LGR2 antagonist project, dose response (AID 743444); type: functional;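 note: transfected HEK 293 cells stimulated with alpha-MSH peptide; potency of inhibitors of the alpha-MSH evoked signal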
[25] = viability loss in HEK293 cells – cell-based, plate reader, cherry-picked samples, cytotoxicity control, dose response (AID 743446); type: functional
[26] = toxicity toward HepG2 liver cells – cell-based, plate reader, cherry-pick, antagonist series, cytotoxicity control, dose response (AID 743416); type: functional
[27] = molecular target: T5, Heat shock factor protein 1 (Mus musculus, UniProt P38532); experiment: decrease of HSF1-responsive luciferase luminescence – cell-based, NIH3T3, dose retest, confirmation (AID 2382); type: functional;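 note: NIH3T3 fibroblasts with HSF1-driven luciferase reporter stressed by proteasome inhibitor MG132; luminescence from HSF1-driven luciferase expression after 8 hours of MG132 stress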
T5 sequence (P38532 whole entry): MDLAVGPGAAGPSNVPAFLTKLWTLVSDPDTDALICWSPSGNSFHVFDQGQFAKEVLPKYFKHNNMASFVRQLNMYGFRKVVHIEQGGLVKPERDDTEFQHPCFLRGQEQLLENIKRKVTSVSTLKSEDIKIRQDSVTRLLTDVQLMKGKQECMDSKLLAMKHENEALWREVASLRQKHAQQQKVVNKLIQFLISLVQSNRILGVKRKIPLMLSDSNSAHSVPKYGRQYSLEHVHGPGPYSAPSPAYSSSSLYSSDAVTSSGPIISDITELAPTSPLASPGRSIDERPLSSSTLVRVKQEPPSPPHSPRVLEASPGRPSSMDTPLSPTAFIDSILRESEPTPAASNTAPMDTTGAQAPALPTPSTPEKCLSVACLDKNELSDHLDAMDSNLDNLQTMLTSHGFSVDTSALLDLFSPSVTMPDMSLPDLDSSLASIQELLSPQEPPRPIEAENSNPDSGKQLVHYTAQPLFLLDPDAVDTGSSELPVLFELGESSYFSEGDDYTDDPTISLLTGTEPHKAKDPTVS

[28] = A549 cell cytotoxicity, dose response, cytotoxicity control, plate reader, cherry-pick, antagonist series (AID 743412); type: functional, cell-based
[29] = blockers of bursicon-stimulated LGR2 cAMP reporter – cell-based, HEK293, CRE-luciferase reporter, cherry pick, set 2, dose response (AID 743343); type: functional;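 note: transfected cells were stimulated with diluted bursicon conditioned medium after compound addition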

In the case of C[C@H](CO)N1C[C@H](C)[C@@H](CN(C)Cc2ccc(Oc3ccccc3)cc2)Oc2ccc(NC(=O)Nc3ccc4c(c3)OCO4)cc2C1=O, the AC50 [1] is reported as 26.4 µM (active) and the AC50 [2] is reported as 26.4 µM (active).

With CC(=O)NC1=C(c2ccccc2)C(=O)c2ccccc2C1=O the AC50 [3] was 15.6 µM (active) and the AC50 [4] was 8.87 µM (active).

For COc1cc(/C=N/OCC(=O)Nc2ccc(OC(F)F)cc2)ccc1OCc1ccccc1, the IC50 [5] was > 69.5 µM (inactive) and the IC50 [6] was > 69.5 µM (inactive).

In the case of O=C(Nc1ccc(S(=O)(=O)Nc2cnc3ccccc3n2)cc1)c1ccc(Cl)c([N+](=O)[O-])c1, the AC50 [7] is reported as > 70 µM (inactive) and the AC50 [8] is reported as 0.905 µM (active).

In the case of Cc1ccc(N/C=C/C(=O)c2cccs2)cc1, the EC50 [9] is reported as 9.77 µM (active), the EC50 [10] is reported as 9.4 µM (active) and the IC50 [11] is reported as > 67.5 µM (inactive). For the same compound, the IC50 [12] was > 0.278 µM (active), the EC50 [13] was 6.06 µM (active) and the IC50 [14] was 39 µM (active). For the same compound, the EC50 [15] was 1.17 µM (active).

In the case of CCOC(=O)c1c(O)nc(C)c(Cl)c1O, the IC50 [16] is reported as > 29.9 µM (inactive) and the EC50 [17] is reported as > 29.9 µM (inactive).

With COc1cc(/C=N/NC(=O)c2cc(-c3ccccc3OC(C)C)nc3ccccc23)ccc1O the EC50 [9] was 13.7 µM (active), the IC50 [18] was > 25 µM (active) and the EC50 [10] was > 120 µM (not active). For the same compound, the CC50 [19] was > 25 µM (active), the CC50 [20] was 29.6 µM (active) and the IC50 [21] was > 69.5 µM (inactive). The EC50 [22] was > 120 µM (not active) and the IC50 [23] was > 69.5 µM (inactive).

For O=C(c1ccc(-c2nc3ccccc3s2)s1)N1CCOCC1, the EC50 [9] was 0.887 µM (active), the AC50 [24] was 2.04 µM (active) and the AC50 [25] was 51.4 µM (active). The EC50 [10] was 54 µM (active), the AC50 [26] was > 52 µM (inactive) and the EC50 [22] was 1.42 µM (active). For the same compound, the EC50 [27] was 1.07 µM (active), the AC50 [28] was > 52 µM (inactive) and the AC50 [29] was 1.49 µM (active).

— ChEMBL document CHEMBL1201862, “PubChem BioAssay data set” (2004)
